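How tested: cells in 96-well plates exposed to compound for 48 hours at five concentrations. GI50 marks 50% less growth. The concentration for full growth arrest is given as TGI.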
Tests used:
Assay in all cases: growth of human tumour cells (NCI), 48 h
SNB-19 CNS = test system: SNB-19 CNS
A549 NSCLC = test system: A549 NSCLC
NCI-H226 lung = test system: NCI-H226 lung
LOX IMVI melanoma = test system: LOX IMVI melanoma
ACHN renal = test system: ACHN renal
786-0 renal = test system: 786-0 renal
KM12 colon = test system: KM12 colon
SK-MEL-5 melanoma = test system: SK-MEL-5 melanoma
HCT-116 colon = test system: HCT-116 colon
SK-OV-3 ovarian = test system: SK-OV-3 ovarian
T-47D breast = test system: T-47D breast
NCI-H522 lung = test system: NCI-H522 lung
MALME-3M melanoma = test system: MALME-3M melanoma
SF-295 CNS = test system: SF-295 CNS
K-562 leukemia = test system: K-562 leukemia
M14 melanoma = test system: M14 melanoma
HCC-2998 colon = test system: HCC-2998 colon
HT29 colon = test system: HT29 colon
SK-MEL-28 melanoma = test system: SK-MEL-28 melanoma
TK-10 renal = test system: TK-10 renal
HOP-92 NSCLC = test system: HOP-92 NSCLC
SF-268 CNS = test system: SF-268 CNS
A498 renal = test system: A498 renal
OVCAR-8 ovarian = test system: OVCAR-8 ovarian
HS 578T breast = test system: HS 578T breast
UACC-257 melanoma = test system: UACC-257 melanoma
HOP-62 NSCLC = test system: HOP-62 NSCLC

`CCNCCNc1cc(-c2ccc(C(=O)OC)cc2)c(C#N)c2nc3ccccc3n12` was tested. Which GI50 (SNB-19 CNS) did it give?
Its GI50 is 4570 nM.

What about the TGI (SNB-19 CNS) of the same molecule?
The TGI was > 100000 nM.

What about the GI50 (A549 NSCLC) of the same molecule?
The GI50 was 1460 nM.

What about the TGI (A549 NSCLC) of the same molecule?
Its TGI is 5010 nM.

And the GI50 (NCI-H226 lung)?
The GI50 was 2020 nM.

What about the TGI (NCI-H226 lung) of the same molecule?
The TGI was 8390 nM.

What about the GI50 (LOX IMVI melanoma) of the same molecule?
Its GI50 is 1530 nM.

And the TGI (LOX IMVI melanoma)?
Its TGI is 2990 nM.

What about the GI50 (ACHN renal) of the same molecule?
The GI50 was 1660 nM.

And the TGI (ACHN renal)?
Its TGI is 3300 nM.

And the GI50 (786-0 renal)?
Its GI50 is 1560 nM.

What about the TGI (786-0 renal) of the same molecule?
Its TGI is 3460 nM.

And the GI50 (KM12 colon)?
Its GI50 is 2590 nM.

And the TGI (KM12 colon)?
Its TGI is > 100000 nM.

What about the GI50 (SK-MEL-5 melanoma) of the same molecule?
The GI50 was 1700 nM.

What about the TGI (SK-MEL-5 melanoma) of the same molecule?
Its TGI is 3110 nM.

What about the GI50 (HCT-116 colon) of the same molecule?
Its GI50 is 758 nM.

What about the TGI (HCT-116 colon) of the same molecule?
Its TGI is 2090 nM.

What about the GI50 (SK-OV-3 ovarian) of the same molecule?
The GI50 was 2000 nM.

And the TGI (SK-OV-3 ovarian)?
The TGI was 4800 nM.

What about the GI50 (T-47D breast) of the same molecule?
The GI50 was 2160 nM.

And the TGI (T-47D breast)?
Its TGI is 5310 nM.

And the GI50 (NCI-H522 lung)?
The GI50 was 1720 nM.

And the TGI (NCI-H522 lung)?
The TGI was 4520 nM.

What about the GI50 (MALME-3M melanoma) of the same molecule?
Its GI50 is 1950 nM.

And the TGI (MALME-3M melanoma)?
Its TGI is 3690 nM.

What about the GI50 (SF-295 CNS) of the same molecule?
Its GI50 is 1570 nM.

And the TGI (SF-295 CNS)?
The TGI was 3120 nM.

What about the GI50 (K-562 leukemia) of the same molecule?
Its GI50 is 1230 nM.

What about the TGI (K-562 leukemia) of the same molecule?
Its TGI is 3200 nM.

What about the GI50 (M14 melanoma) of the same molecule?
Its GI50 is 1580 nM.

What about the TGI (M14 melanoma) of the same molecule?
The TGI was 3230 nM.

And the GI50 (HCC-2998 colon)?
Its GI50 is 2300 nM.

What about the TGI (HCC-2998 colon) of the same molecule?
The TGI was > 100000 nM.

What about the GI50 (HT29 colon) of the same molecule?
The GI50 was 1600 nM.

What about the TGI (HT29 colon) of the same molecule?
The TGI was 4470 nM.

And the GI50 (SK-MEL-28 melanoma)?
The GI50 was 1720 nM.

And the TGI (SK-MEL-28 melanoma)?
The TGI was 3450 nM.

And the GI50 (TK-10 renal)?
The GI50 was 1910 nM.

What about the TGI (TK-10 renal) of the same molecule?
The TGI was 4440 nM.

What about the GI50 (HOP-92 NSCLC) of the same molecule?
The GI50 was 2230 nM.

And the TGI (HOP-92 NSCLC)?
The TGI was 4360 nM.

What about the GI50 (SF-268 CNS) of the same molecule?
Its GI50 is 2540 nM.

What about the TGI (SF-268 CNS) of the same molecule?
Its TGI is 16200 nM.

What about the GI50 (A498 renal) of the same molecule?
Its GI50 is 1990 nM.

And the TGI (A498 renal)?
Its TGI is 5130 nM.

What about the GI50 (OVCAR-8 ovarian) of the same molecule?
The GI50 was 2130 nM.

And the TGI (OVCAR-8 ovarian)?
Its TGI is 5320 nM.

What about the GI50 (HS 578T breast) of the same molecule?
The GI50 was 2420 nM.

What about the TGI (HS 578T breast) of the same molecule?
Its TGI is 7480 nM.

And the GI50 (UACC-257 melanoma)?
The GI50 was 1870 nM.

What about the TGI (UACC-257 melanoma) of the same molecule?
The TGI was 3710 nM.

What about the GI50 (HOP-62 NSCLC) of the same molecule?
The GI50 was 2480 nM.

What about the TGI (HOP-62 NSCLC) of the same molecule?
Its TGI is 9460 nM.

From PubChem BioAssay (NCI)
